Data as given in patent US20260060944A1, “PHARMACEUTICAL COMPOSITION AND USE THEREOF” (priority 2022, published 2026).

How the values were obtained:
[1] = tested on: human non-small cell lung cancer (A549) cell lines; assay: Cell survival rate (MTS) of A549 cells; type: cell-based; details: for reduction in survival rate: individually administered at concentrations ranging from 2 to 80 nM
Experimental: (§1) Human cancer cell lines, including non-small cell lung cancer (A549), glioblastoma (U87), glioblastoma (T98G), erythroleukemia type cell line (K-562), acute monocytic leukemia (THP-1), hepatocellular carcinoma (HepG2), colorectal cancer (HCT116), ovarian cancer (TOV-21G), triple-negative breast cancer (MDA-MB-231), or drug-resistant human breast cancer (MCF7-resistant), were cultured in media supplemented with 10% (v/v) fetal bovine serum (FBS) (Penicillin-Streptomycin Solution, ACE Biolabs, CC1009), glutamine-enriched Nutrient Mixture F-12 Ham Kaighn's Modification (F-12/K, SIGMA-ALDRICH, USA), and RPMI-1640 (HiMedia Laboratories LLC, USA). The cell lines were separately incubated in a 5% CO2 atmosphere at 37° C. using a controlled incubator (Astec-SCA-165DS).
(§2) Different cancer cell lines were seeded in 96-well plates and allowed to adhere for 24 hours. Cells were then treated with combinations of three drugs, while untreated cells served as the control group. 20 μL of MTS reagent (Promega, USA) was added to each well and incubated at 37° C. for one hour. Optical density (OD) was measured at 490 nm using an ELISA detector (BioTek EPOCH2) to evaluate the ell viability and proliferation by using the following formula: […]
(§3) In some embodiments of the present invention, drug concentrations used for testing cancer cell lines is in nM and the effective dose range ranged from 0.8 nM to 83 nM.
To evaluate whether the pharmaceutical composition containing various pharmacologically active ions could produce synergistic drug effects, tests were conducted on human non-small cell lung cancer (A549) cell lines. The dose units in Table 2 are expressed in nM. The pharmacologically active ion used in this study was gluconate ion.
To evaluate whether varying dosages of the pharmaceutical composition of the present invention could inhibit the survival rate of human non-small cell lung cancer cell line (A549), cell survival analyses of A549 were conducted.
In this experiment, the pharmacologically active copper ion was cupric in the form of copper gluconate.

[2] = tested on: glioblastoma (T98G) cell line; assay: Cell survival rate (MTS) of T98G cells; type: cell-based, Human
Experimental: as §1, §2, §3
To evaluate the inhibitory effect of the pharmaceutical composition of the present invention on the survival rate of glioblastoma (T98G) cell line, analysis on survival rate was performed.
The active copper ion used in this study was copper gluconate.

[3] = tested on: glioblastoma (U-87) cell line; assay: Cell survival rate (MTS) of U-87 cells; type: cell-based, Human
Experimental: as §1, §2, §3
To evaluate the inhibitory effect of the pharmaceutical composition of the present invention on the survival rate of glioblastoma (U-87) cell line, analysis on survival rate was performed.
The active copper ion used in this study was copper gluconate. […] Using the pharmaceutical composition, the concentrations could be reduced while achieving a higher inhibition rate.

[4] = tested on: human lung squamous cell carcinoma (H520) cell line; assay: In vivo tumor suppression, H520 subcutaneous tumor model in nude mice; set-up: species or system Balb/c nude mice; details: H520 tumors in nude mice
Text: (§4) Female, 5-week-old Balb/c CAnN.Cg-Foxnlnu/CrlNarl nude mice were obtained from the National Laboratory Animal Center. […] Experiments commenced when they reached six weeks of age.
(§5) Nude mice of six weeks of age were used to establish two lung epithelial carcinoma and animal models. 1×10^7 cells of Human non-small cell lung cancer (NSCLC) cell line A549 and of human lung squamous carcinoma cell line H520, provided by the Food Industry Research and Development Institute in Taiwan, were subcutaneously injected 100 μL into the dorsal area near the right hind limb.
(§6) H520 model: 7 mice per group, administered orally once daily for 13 days. The pharmacologically active multivalent ions used were copper ions in the form of copper gluconate.
(§7) Tumor volume was measured weekly using a tumor measurement device (TM900, Peira, Turnhout, Belgium). After five weeks of drug administration, the mice were sacrificed, and tumors were excised from the right hind limb. Tumor volume was calculated based on the longest and shortest diameters using the formula: […]
(§8) The tumors were then weighed and recorded. Tumor inhibition rates were calculated using the control group as a baseline: […]
A tumor model was established in nude mice via subcutaneous injection. Tumor size was measured over 14 days, after which the mice were then divided into six groups and treated with the pharmaceutical composition. The pharmaceutical-using group continued to be fed the test drug by oral gavage. Due to the rapid growth rate of H520 tumors in vivo, animals were sacrificed when tumors reached a specific size. Tumor model nude mice were sacrificed after 13 days of administration to evaluate changes in tumor growth and observe the inhibitory effect of the test drug on tumors.

[5] = tested on: human lung squamous cell carcinoma (H520) cell line; assay: as above; set-up: species or system Balb/c nude mice; details: H520 tumors in nude mice, oral once daily
[6] = tested on: human non-small cell lung cancer (A549) cell line; assay: In vivo tumor suppression, A549 subcutaneous tumor model in nude mice; set-up: species or system Balb/c nude mice; details: A549 tumors in nude mice; for Tumor Weight: after sacrifice
Text: as §4, §5
A549 model: 6 mice per group, administered orally once daily for 25 days.
as §6, §7, §8
A tumor model was established in nude mice via subcutaneous injection. Tumor size was monitored for 14 days, after which the mice were divided into six groups and treated with the pharmaceutical composition. The pharmaceutical-using group continued to be fed the test drug by oral gavage.

[7] = oral once daily for 13 days, when sacrificed
[8] = oral once daily for 25 days, when sacrificed
[9] = oral once daily, Day 7 of administration

## [Mg] [magnesium]
[1]; single agent 1 nM (Table 2)
  Survival Rate (%): 100.52%

## [Mn+2] [manganese]
[1]; single agent 1 nM (Table 2)
  Survival Rate (%): 104.35%

## copper gluconate [cupric]
[2]; single agent 16 nM
  Survival Rate (%): 102.03%
[2]; single agent 41 nM
  Survival Rate (%): 102.19%
[2]; single agent 83 nM
  Survival Rate (%): 98.35%
[3]; single agent 16 nM
  Survival Rate (%): 103.71%
[3]; single agent 41 nM
  Survival Rate (%): 103.97%
[3]; single agent 83 nM
  Survival Rate (%): 101.73%
[1]
  reduction in survival rate: no significant reduction in survival rate
[1]; single agent 1 nM (Table 2)
  Survival Rate (%): 103.70%
[1]; single agent 80 nM (Table 3)
  Survival Rate (%): 109.28%

## [Ca] [calcium]
[1]; single agent 1 nM (Table 2)
  Survival Rate (%): 103.98%

## [Fe+2] [ferrous]
[1]; single agent 1 nM (Table 2)
  Survival Rate (%): 106.27%

## O=C(Nc1ccc([N+](=O)[O-])cc1Cl)c1cc(Cl)ccc1O [Niclosamide]
[4]; after sacrifice
  Tumor Weight: 0.955 g
  average tumor weight inhibition rates compared to Group S1: 30.5%
[4]; at the time of sacrifice
  tumor volume inhibition rates compared to Group S1: 30.49%
[4]; [7]
  Tumor Volume: 1604.3 mm^3
[4]; oral once daily, Day 7
  Tumor Volume: 538.8 mm^3
[2]; single agent 8 nM
  Survival Rate (%): 92.50%
[2]; single agent 16 nM
  Survival Rate (%): 87.87%
[3]; single agent 8 nM
  Survival Rate (%): 89.33%
[3]; single agent 16 nM
  Survival Rate (%): 88.60%
[5]; Day 4 of administration
  Tumor Volume: 269.6 mm^3
[5]; Day 9
  Tumor Volume: 802.4 mm^3
[5]; Day 11
  Tumor Volume: 1204.1 mm^3
[6]
  Tumor Weight: 0.330 g
[6]; at the time of sacrifice
  tumor volume inhibition rates compared to Group S1: 12.78%
[6]; following sacrifice
  average tumor weight inhibition rates compared to Group S1: 13.5%
[6]; [8]
  Tumor Volume: 396.1 mm^3
[6]; [9]
  Tumor Volume: 73.4 mm^3
[6]; oral once daily, Day 11
  Tumor Volume: 89.7 mm^3
[6]; oral once daily, Day 14
  Tumor Volume: 136.3 mm^3
[6]; oral once daily, Day 17
  Tumor Volume: 179.6 mm^3
[6]; oral once daily, Day 20
  Tumor Volume: 219.0 mm^3
[6]; oral once daily, Day 23
  Tumor Volume: 319.8 mm^3
[1]
  reduction in survival rate: no significant reduction in survival rate
[1]; single agent 2 nM (Table 3)
  Survival Rate (%): 112.66%
[1]; single agent 6 nM (Table 2)
  Survival Rate (%): 98.00%

## [Zn+2] [zinc]
[1]; single agent 1 nM (Table 2)
  Survival Rate (%): 104.71%

## CCN(CC)C(=S)SSC(=S)N(CC)CC [Disulfiram]
[2]; single agent 16 nM
  Survival Rate (%): 96.37%
[2]; single agent 41 nM
  Survival Rate (%): 97.27%
[2]; single agent 83 nM
  Survival Rate (%): 96.15%
[3]; single agent 16 nM
  Survival Rate (%): 102.66%
[3]; single agent 41 nM
  Survival Rate (%): 101.02%
[3]; single agent 83 nM
  Survival Rate (%): 63.98%
[1]; single agent 1 nM (Table 2)
  Survival Rate (%): 99.58%
[1]; single agent 80 nM (Table 3)
  Survival Rate (%): 93.85%

## COc1cc2ncnc(Nc3ccc(F)c(Cl)c3)c2cc1OCCCN1CCOCC1 [Group S4, Gefitinib]
[4]; after sacrifice
  Tumor Weight: 0.981 g
[4]; [7]
  Tumor Volume: 1653.1 mm^3
[4]; oral once daily, Day 7
  Tumor Volume: 506.4 mm^3
[5]; Day 4 of administration
  Tumor Volume: 259.6 mm^3
[5]; Day 9
  Tumor Volume: 898.6 mm^3
[5]; Day 11
  Tumor Volume: 1290.0 mm^3
[6]
  Tumor Weight: 0.197 g
[6]; [8]
  Tumor Volume: 239.6 mm^3
[6]; [9]
  Tumor Volume: 54.2 mm^3
[6]; oral once daily, Day 11
  Tumor Volume: 69.5 mm^3
[6]; oral once daily, Day 14
  Tumor Volume: 82.0 mm^3
[6]; oral once daily, Day 17
  Tumor Volume: 102.8 mm^3
[6]; oral once daily, Day 20
  Tumor Volume: 141.3 mm^3
[6]; oral once daily, Day 23
  Tumor Volume: 202.6 mm^3
